According to ChEMBL document CHEMBL4811302, “Solid-phase synthesis of curcumin mimics and their anticancer activity against human pancreatic, prostate, and colorectal cancer cell lines” (Bioorg Med Chem, 2021):
Activity calls are given as the source filed them. No cut-off for these calls is given here.

Experiments:
[1] = test system: SW480; assay: Antiproliferative activity against human SW480 cells assessed as reduction in cell growth at 100 uM incubated for 72 hrs by trypan blue assay relative to control; assay type: functional
[2] = Stability of compound in human serum assessed as parent compound remaining measured upto 96 hrs by HPLC analysis; assay type: ADME, cell-free
[3] = test system: PC-3; assay: Antiproliferative activity against human PC-3 cells assessed as reduction in cell growth at 100 uM incubated for 72 hrs by trypan blue assay relative to control; assay type: functional
[4] = test system: PC-3; assay: Antiproliferative activity against human PC-3 cells assessed as cell death at 100 uM incubated for 72 hrs by trypan blue assay (reference value: 3%); assay type: functional
[5] = Stability of compound in simulated intestinal fluid assessed as parent compound remaining at pH 6.8 at 1 mM measured after 48 hrs by HPLC analysis; assay type: ADME; settings: simulated gi fluid, pH 6.8, 48 h, 1000 µM
[6] = Stability of compound in alkaline phosphatase by HPLC analysis; assay type: ADME
[7] = test system: PANC-1; assay: Antiproliferative activity against human PANC-1 cells assessed as reduction in cell growth at 100 uM incubated for 72 hrs by trypan blue assay relative to control; assay type: functional
[8] = test system: PANC-1; assay: Antiproliferative activity against human PANC-1 cells assessed as cell death at 100 uM incubated for 72 hrs by trypan blue assay relative to control; assay type: functional, cell-based
[9] = Stability of compound in simulated gastric fluid assessed as drug degradation at pH 1.2 at 1 mM measured after 48 hrs by HPLC analysis; assay type: ADME; settings: read-out: Drug degradation
[10] = test system: SW480; assay: Antiproliferative activity against human SW480 cells assessed as cell death at 100 uM incubated for 72 hrs by trypan blue assay relative to control; assay type: functional, cell-based

O=P([O-])(OCCc1ccc(O)cc1)OCCc1ccc(O)c(O)c1.[Na+]
inhibition [1]: Active | Stabilty [2]: Stable | inhibition [3]: Active | Activity [4]: Active | Stabilty [5]: Stable | Stabilty [6]: Stable | inhibition [7]: inactive | Activity [8]: Active | degraded at 48 h, 1000 µM [9]: < 5%

COc1cc(CCO)ccc1O
inhibition at 100 µM [1]: 12% | inhibition [3]: inactive | Activity [4]: Active | inhibition [7]: inactive | Activity [8]: Active

O=P([O-])(OCCc1ccc(O)cc1)OCCc1ccc(O)cc1.[Na+]
inhibition [1]: Active | Stabilty [2]: Stable | inhibition [3]: Active | Activity [4]: Active | Stabilty [5]: Stable | Stabilty [6]: Stable | inhibition [7]: inactive | Activity [8]: Active | degraded at 48 h, 1000 µM [9]: < 5%

OCCc1ccc(O)c(O)c1 [HYDROXYTYROSOL]
inhibition at 100 µM [1]: 38% | inhibition at 100 µM [3]: 33% | inhibition at 100 µM [7]: 15% | Activity [8]: Active

O=P([O-])(OCCc1ccc(O)c(O)c1)OCCc1ccc(O)c(O)c1.[Na+]
Activity [10]: Active | inhibition at 100 µM [1]: 25% | Stabilty [2]: Stable | inhibition [3]: Active | Activity [4]: Active | Stabilty [5]: Stable | Stabilty [6]: Stable | inhibition [7]: inactive | Activity [8]: Active | degraded at 48 h, 1000 µM [9]: < 5%

COc1cc(CCOP(=O)([O-])OCCc2ccc(O)cc2)ccc1O.[Na+]
inhibition [1]: Active | Stabilty [2]: Stable | inhibition at 100 µM [3]: 28% | Activity [4]: 23% | Stabilty [5]: Stable | Stabilty [6]: Stable | inhibition [7]: inactive | Activity [8]: Active | degraded at 48 h, 1000 µM [9]: < 5%

OCCc1ccc(O)cc1 [TYROSOL]
inhibition at 100 µM [1]: 12% | inhibition at 100 µM [3]: 13% | Activity [4]: 7% | inhibition [7]: inactive | Activity [8]: Active

COc1cc(CCOP(=O)([O-])OCCc2ccc(O)c(OC)c2)ccc1O.[Na+]
inhibition [1]: Active | Stabilty [2]: Stable | inhibition [3]: Active | Activity [4]: Active | Stabilty [5]: Stable | Stabilty [6]: Stable | inhibition [7]: inactive | Activity [8]: Active | degraded at 48 h, 1000 µM [9]: < 5%

COc1cc(CCOP(=O)([O-])OCCc2ccc(O)c(O)c2)ccc1O.[Na+]
Activity [10]: Active | inhibition at 100 µM [1]: 15% | Stabilty [2]: Stable | inhibition [3]: Active | Activity [4]: Active | Stabilty [5]: Stable | Stabilty [6]: Stable | inhibition [7]: inactive | Activity [8]: Active | degraded at 48 h, 1000 µM [9]: < 5%
